Data reported in patent US20240366589A1, “NHE3-BINDING COMPOUNDS AND METHODS FOR INHIBITING PHOSPHATE TRANSPORT” (Ardelyx, Inc., priority 2013, published 2024).

Assays:
Rat NHE3 = biological target: T1, Rat NHE3 (Rattus norvegicus, UniProt P26433); experiment: Cell-based NHE3 activity under prompt conditions (OK cells, BCECF pH recovery), rat NHE3; conditions: prompt conditions
T1 construct: expressed in transfected cells; host or cells: Opossum kidney (OK) cells (ATCC), electroporation
Outline: (§1)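 OK cells electroporated with rat or human NHE3 were loaded with 5 μM BCECF-AM in NH4Cl-HEPES (pH 7.4) for 30 min at room temperature, then acid-loaded 10 min in Na+-free choline-HEPES.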

Human NHE3 = biological target: T2, Human NHE3 (Homo sapiens, UniProt P48764); experiment: Cell-based NHE3 activity under prompt conditions (OK cells, BCECF pH recovery), human NHE3; conditions: prompt conditions
T2 construct: expressed in transfected cells; host or cells: Opossum kidney (OK) cells (ATCC), electroporation
T2 sequence (P48764 26-834): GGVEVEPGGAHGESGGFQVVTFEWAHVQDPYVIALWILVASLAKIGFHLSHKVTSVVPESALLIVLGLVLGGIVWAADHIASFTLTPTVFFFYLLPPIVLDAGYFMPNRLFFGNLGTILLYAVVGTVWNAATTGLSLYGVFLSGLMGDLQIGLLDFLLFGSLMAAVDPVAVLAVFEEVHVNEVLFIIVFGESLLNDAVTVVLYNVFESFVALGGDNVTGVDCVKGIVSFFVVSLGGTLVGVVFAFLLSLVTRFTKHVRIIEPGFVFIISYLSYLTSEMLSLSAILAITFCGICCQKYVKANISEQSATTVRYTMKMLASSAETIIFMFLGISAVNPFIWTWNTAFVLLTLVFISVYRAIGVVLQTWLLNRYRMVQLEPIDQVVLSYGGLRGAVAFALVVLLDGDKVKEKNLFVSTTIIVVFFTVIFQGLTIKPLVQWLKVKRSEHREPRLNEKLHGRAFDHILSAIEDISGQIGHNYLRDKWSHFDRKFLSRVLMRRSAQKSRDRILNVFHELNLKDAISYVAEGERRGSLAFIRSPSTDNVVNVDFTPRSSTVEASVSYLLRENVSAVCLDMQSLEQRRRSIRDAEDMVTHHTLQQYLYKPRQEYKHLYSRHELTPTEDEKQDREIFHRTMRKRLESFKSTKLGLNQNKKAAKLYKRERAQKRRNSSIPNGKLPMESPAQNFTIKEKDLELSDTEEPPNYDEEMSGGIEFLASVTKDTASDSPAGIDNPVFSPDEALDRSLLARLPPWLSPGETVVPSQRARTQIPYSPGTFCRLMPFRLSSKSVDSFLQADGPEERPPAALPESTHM
Outline: as §1

[1] = system: phosphorus and calcium levels in the urine of rats; experiment: Urinary excretion of phosphate and calcium in rats (16 h overnight urine); assay type: in vivo, rat; conditions: rats, oral gavage, 16 h post-dose
[2] = system: absorption of sodium from the intestinal lumen; experiment: Inhibition of intestinal sodium absorption: urinary sodium (uNa) 16 h after single oral dose in rats; assay type: in vivo, rat; conditions: oral gavage, 16 h post-dose
Outline: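 Eight-week-old Sprague-Dawley rats (n=6) given single oral gavage of compound or water vehicle in the late afternoon, then kept in metabolic cages with chow and water ad libitum. Urine collected over 16 h; sodium quantified by ion chromatography and expressed as % of vehicle mean, compared by one-way ANOVA with Dunnett's test.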

[3] = system: absorption of sodium from the intestinal lumen; experiment: Fecal form score (FFS) 16 h after oral dose in rats; assay type: in vivo, rat; conditions: oral gavage, 16 h post-dose, scale 1-5
Outline: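 Eight-week-old Sprague-Dawley rats (n=6) dosed by oral gavage with compound or water vehicle between 4 and 5 PM, then housed in metabolic cages with food and water ad libitum. At 16 h, fecal form scored 1 (normal pellet) to 5 (liquid streams) by two observers; group mean reported.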

T1 sequence (P26433 29-831): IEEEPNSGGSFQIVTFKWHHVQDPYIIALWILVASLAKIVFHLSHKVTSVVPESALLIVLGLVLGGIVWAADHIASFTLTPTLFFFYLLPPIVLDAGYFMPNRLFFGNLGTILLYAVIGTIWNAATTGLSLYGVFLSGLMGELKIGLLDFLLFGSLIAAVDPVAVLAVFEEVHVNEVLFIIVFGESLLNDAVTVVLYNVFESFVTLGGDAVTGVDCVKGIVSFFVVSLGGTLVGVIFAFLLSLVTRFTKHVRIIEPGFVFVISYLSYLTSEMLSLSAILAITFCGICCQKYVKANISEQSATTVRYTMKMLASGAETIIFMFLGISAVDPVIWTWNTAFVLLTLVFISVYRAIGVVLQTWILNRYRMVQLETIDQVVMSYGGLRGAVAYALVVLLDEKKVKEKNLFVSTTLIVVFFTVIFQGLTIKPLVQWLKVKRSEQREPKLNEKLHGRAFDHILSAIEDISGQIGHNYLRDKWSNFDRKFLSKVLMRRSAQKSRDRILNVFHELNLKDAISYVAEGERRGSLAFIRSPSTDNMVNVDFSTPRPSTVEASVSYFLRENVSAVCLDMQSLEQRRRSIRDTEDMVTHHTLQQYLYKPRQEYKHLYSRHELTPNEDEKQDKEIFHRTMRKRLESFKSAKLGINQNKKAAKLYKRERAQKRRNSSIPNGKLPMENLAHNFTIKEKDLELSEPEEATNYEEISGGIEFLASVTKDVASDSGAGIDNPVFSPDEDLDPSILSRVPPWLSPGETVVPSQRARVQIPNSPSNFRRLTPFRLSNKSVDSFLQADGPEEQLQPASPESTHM

| SMILES | Prompt Rat NHE3 pIC50 (Rat NHE3) | Prompt Human NHE3 pIC50 (Human NHE3) | Urine P % of control ([1]; dose 3 mg/kg) | Urine Na % of control ([2]; dose 3 mg/kg) | Fecal Form Score average ([3]; dose 3 mg/kg) | Urine P % of control ([1]; dose 10 mg/kg) | Urine Na % of control ([2]; dose 10 mg/kg) | Fecal Form Score average ([3]; dose 10 mg/kg) | IC50 (Rat NHE3; read-out: Prompt Rat NHE3 pIC50 (converted)) |
| --- | --- | --- | --- | --- | --- | --- | --- | --- | --- |
| CN1Cc2c(Cl)cc(Cl)cc2[C@H](c2cccc(S(=O)(=O)NCCOCCOCCNC(=O)CCC(CCC(=O)NCCOCCOCCNS(=O)(=O)c3cccc([C@@H]4CN(C)Cc5c(Cl)cc(Cl)cc54)c3)(CCC(=O)NCCOCCOCCNS(=O)(=O)c3cccc([C@@H]4CN(C)Cc5c(Cl)cc(Cl)cc54)c3)NC(=O)NCC(=O)O)c2)C1 [compound 164] | 7.53 | 8.13 | 63% | 18% | 3 |  |  |  |  |
| O=C(NCCCCNC(=O)NCCOCCOCCNS(=O)(=O)c1ccc(O[C@H]2c3cc(Cl)cc(F)c3C[C@@H]2N2CC[C@@H](O)C2)cc1)NCCOCCOCCNS(=O)(=O)c1ccc(O[C@H]2c3cc(Cl)cc(F)c3C[C@@H]2N2CC[C@@H](O)C2)cc1 [compound 165] | <5.00 | 8.20 |  |  |  | 68% | 104% | 1 |  |
| CN(C)[C@H]1Cc2c(F)cc(Cl)cc2[C@@H]1Oc1ccc(S(=O)(=O)NCCOCCOCCNC(=O)NCCCCNC(=O)NCCOCCOCCNS(=O)(=O)c2ccc(O[C@H]3c4cc(Cl)cc(F)c4C[C@@H]3N(C)C)cc2)cc1 [compound 166] | <5.00 | 8.40 |  |  |  | 43% | 111% | 1 |  |
| CN1Cc2c(Cl)cc(Cl)cc2[C@H](c2cccc(S(=O)(=O)NCCOCCOCCNC(=O)NCCCC(CCCNC(=O)NCCOCCOCCNS(=O)(=O)c3cccc([C@@H]4CN(C)Cc5c(Cl)cc(Cl)cc54)c3)(CCCNC(=O)NCCOCCOCCNS(=O)(=O)c3cccc([C@@H]4CN(C)Cc5c(Cl)cc(Cl)cc54)c3)NC(=O)NC[C@H](O)[C@@H](O)[C@H](O)[C@H](O)CO)c2)C1 [compound 167] | 5.80 | 8.37 | 99% | 36% | 2 |  |  |  |  |
| CN1Cc2c(Cl)cc(Cl)cc2[C@H](c2cccc(S(=O)(=O)NCCOCCOCCNC(=O)NCCC(N)(CCNC(=O)NCCOCCOCCNS(=O)(=O)c3cccc([C@@H]4CN(C)Cc5c(Cl)cc(Cl)cc54)c3)CCNC(=O)NCCOCCOCCNS(=O)(=O)c3cccc([C@@H]4CN(C)Cc5c(Cl)cc(Cl)cc54)c3)c2)C1 [compound 168] | 7.35 | 8.13 | 50% | 56% | 1 |  |  |  |  |
| CC(=O)C(CCC(=O)NCCOCCOCCNS(=O)(=O)c1cccc([C@@H]2CN(C)Cc3c(Cl)cc(Cl)cc32)c1)(CCC(=O)NCCOCCOCCNS(=O)(=O)c1cccc([C@@H]2CN(C)Cc3c(Cl)cc(Cl)cc32)c1)CCC(=O)NCCOCCOCCNS(=O)(=O)c1cccc([C@@H]2CN(C)Cc3c(Cl)cc(Cl)cc32)c1 [compound 169] | 6.50 | 6.20 | 64% | 42% | 2 |  |  |  |  |
| CN1Cc2c(Cl)cc(Cl)cc2[C@H](c2cccc(S(=O)(=O)NCCOCCOCCNCCCC(CCC(=O)NCCOCCOCCNS(=O)(=O)c3cccc([C@@H]4CN(C)Cc5c(Cl)cc(Cl)cc54)c3)(CCC(=O)NCCOCCOCCNS(=O)(=O)c3cccc([C@@H]4CN(C)Cc5c(Cl)cc(Cl)cc54)c3)NC(=O)N3CCN(CCOCCO)CC3)c2)C1 [compound 170] |  | 7.20 | 34% | 31% | 2 |  |  |  | 79.4 nM |
| CN1Cc2c(Cl)cc(Cl)cc2[C@H](c2cccc(S(=O)(=O)NCCOCCOCCNC(=O)NCCC(CCNC(=O)NCCOCCOCCNS(=O)(=O)c3cccc([C@@H]4CN(C)Cc5c(Cl)cc(Cl)cc54)c3)(CCNC(=O)NCCOCCOCCNS(=O)(=O)c3cccc([C@@H]4CN(C)Cc5c(Cl)cc(Cl)cc54)c3)NC(=O)COCC(=O)O)c2)C1 [compound 172] | 8.20 | 7.10 | 42% | 26% | 2 |  |  |  |  |
| CN(C)[C@H]1Cc2c(Cl)cc(Cl)cc2[C@@H]1Oc1ccc(S(=O)(=O)NCCOCCOCCNC(=O)CCC(C)(N)CCC(=O)NCCOCCOCCNS(=O)(=O)c2ccc(O[C@H]3c4cc(Cl)cc(Cl)c4C[C@@H]3N(C)C)cc2)cc1 [compound 174] | 8.60 | 8.53 | 55% | 37% | 1 | 61% | 49% | 1 |  |
| CN1Cc2c(Cl)cc(Cl)cc2[C@H](c2cccc(S(=O)(=O)NCCOCCOCCN(C)C(=O)CCC(N)(CCC(=O)N(C)CCOCCOCCNS(=O)(=O)c3cccc([C@@H]4CN(C)Cc5c(Cl)cc(Cl)cc54)c3)CCC(=O)N(C)CCOCCOCCNS(=O)(=O)c3cccc([C@@H]4CN(C)Cc5c(Cl)cc(Cl)cc54)c3)c2)C1 [compound 175] | 7.80 | 7.40 | 48% | 102% | 1 |  |  |  |  |
| CN(C)CC(=O)NC(CCC(=O)N(C)CCOCCOCCNS(=O)(=O)c1cccc([C@@H]2CN(C)Cc3c(Cl)cc(Cl)cc32)c1)(CCC(=O)N(C)CCOCCOCCNS(=O)(=O)c1cccc([C@@H]2CN(C)Cc3c(Cl)cc(Cl)cc32)c1)CCC(=O)N(C)CCOCCOCCNS(=O)(=O)c1cccc([C@@H]2CN(C)Cc3c(Cl)cc(Cl)cc32)c1 [compound 176] | 7.50 | 7.40 | 92% | 73% | 1 |  |  |  |  |
| CN1Cc2c(Cl)cc(Cl)cc2[C@H](c2cccc(S(=O)(=O)NCCOCCOCCN(C)C(=O)CCC(CCC(=O)N(C)CCOCCOCCNS(=O)(=O)c3cccc([C@@H]4CN(C)Cc5c(Cl)cc(Cl)cc54)c3)(CCC(=O)N(C)CCOCCOCCNS(=O)(=O)c3cccc([C@@H]4CN(C)Cc5c(Cl)cc(Cl)cc54)c3)NC(=O)COCC(=O)O)c2)C1 [compound 177] | 7.70 | 7.80 | 45% | 52% | 2 |  |  |  |  |
| CN1Cc2c(Cl)cc(Cl)cc2[C@H](c2cccc(S(=O)(=O)NCCOCCOCCNC(=O)CCC(CCC(=O)NCCOCCOCCNS(=O)(=O)c3cccc([C@@H]4CN(C)Cc5c(Cl)cc(Cl)cc54)c3)(CCC(=O)NCCOCCOCCNS(=O)(=O)c3cccc([C@@H]4CN(C)Cc5c(Cl)cc(Cl)cc54)c3)NC(=O)NC(CO)CO)c2)C1 [compound 178] | 7.10 | 7.33 | 46% | 18% | 3 |  |  |  |  |
